tested on: HCV 1b genotype; test: HCV Replicon assay (HCV 16-377-neo replicon cells); assay type: cell-based; conditions: Hepatitis C virus; HCV 1b genotype replicon cells; read-out: EC50 ranges against HCV 1b
Procedure, shortened: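 Inhibition measured in HCV 16-377-neo replicon cells, alongside replicon cells carrying the NS5A Y2065H resistance mutation.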

| SMILES | EC50 |
| --- | --- |
| Cc1[nH]c([C@@H]2CCCN2C(=O)[C@@H](c2ccccc2)N(C)C)nc1-c1ccc(-c2ccc(-c3c[nH]c([C@@H]4CCCN4C(=O)[C@@H](c4ccccc4)N(C)C)n3)cc2)cc1 [Example E5, (1R)-2-((2S)-2-(4-(4'-(2-((2S)-1-((2R)-2-(dimethylamino)-2-phenylacetyl)-2-pyrrolidinyl)-1H-imidazol-4-yl)-4-biphenylyl)-5-methyl-1 H-imidazol-2-yl)-1-pyrrolidinyl)-N,N-dimethyl-2-oxo-1-phenylethanamine] | 0.001 to 0.999 nM |
| COC(=O)N[C@H](C(=O)N1CC2(CC2)C[C@H]1c1nc(-c2ccc(-c3ccc(-c4c[nH]c([C@@H]5CC6(CC6)CN5C(=O)[C@@H](NC(=O)OC)C(C)C)n4)cc3)cc2)c[nH]1)C(C)C [Example M145, methyl ((1S)-1-(((6S)-6-(4-(4'-(2-((6S)-5-((2S)-2-((methoxycarbonyl)amino)-3-methylbutanoyl)-5-azaspiro[2.4]hept-6-yl)-1H-imidazol-4-yl)-4-biphenylyl)-1H-imidazol-2-yl)-5-azaspiro[2.4]hept-5-yl)carbonyl)-2-methylpropyl)carbamate] | 0.001 to 0.999 nM |
| COC(=O)N[C@H](C(=O)N1[C@@H]2C[C@@H]2C[C@H]1c1nc(-c2ccc(-c3ccc(-c4c[nH]c([C@@H]5C[C@H]6C[C@H]6N5C(=O)[C@@H](NC(=O)OC)C5CC5)n4)cc3)cc2)c[nH]1)C1CC1 [Example M135, dimethyl (4,4'-biphenyldiylbis(1H-imidazole-4,2-diyl(1R,3S,5R)-2-azabicyclo[3.1.0]hexane-3,2-diyl((1S)-1-cyclopropyl-2-oxo-2,1-ethanediyl)))biscarbamate] | 0.001 to 0.999 nM |
| CCCc1[nH]c([C@@H]2CCCN2C(=O)[C@@H](c2ccccc2)N(CC)CC)nc1-c1ccc(-c2ccc(-c3c[nH]c([C@@H]4CCCN4C(=O)[C@@H](c4ccccc4)N(CC)CC)n3)cc2)cc1 [Example J14c.1, (1R)-2-((2S)-2-(4-(4'-(2-((2S)-1-((2R)-2-(diethylamino)-2-phenylacetyl)-2-pyrrolidinyl)-1H-imidazol-4-yl)-4-biphenylyl)-5-propyl-1H-imidazol-2-yl)-1-pyrrolidinyl)-N,N-diethyl-2-oxo-1-phenylethanamine] | 0.001 to 0.999 nM |
| COC(=O)Cc1[nH]c([C@@H]2CCCN2C(=O)[C@@H](NC(=O)OC)[C@@H](C)OC)nc1-c1ccc(-c2ccc(-c3c[nH]c([C@@H]4CCCN4C(=O)[C@@H](NC(=O)OC)[C@@H](C)OC)n3)cc2)cc1 [Example J14b, methyl (2-((2S)-1-(N-(methoxycarbonyl)-O-methyl-L-threonyl)-2-pyrrolidinyl)-4-(4'-(2-((2S)-1-(N-(methoxycarbonyl)-O-methyl-L-threonyl)-2-pyrrolidinyl)-1H-imidazol-4-yl)4-biphenylyl)-1H-imidazol-5-yl)acetate] | 0.001 to 0.999 nM |
